Consider 10 compounds from patent publication US20230416221A1, “DIHYDROISOQUINOLINONE AND ISOINDOLINONE DERIVATIVES AND USES THEREOF” (HEFEI INSTITUTES OF PHYSICAL SCIENCE, CHINESE ACADEMY OF …, priority 2020, published 2023).

For test [1], the system named is acute myeloid leukemia cell line MOLM14. In words: Growth of cancer cells, Cell Titer-Glo GI50, MOLM14. Format: cell-based. To be noted: incubated for 72 hours, Cell Titer-Glo, read-out: GI50 MOLM 14. In general terms: Cellular ATP, detected with luciferase, serves as a proxy for viable cell number.
The subject of test [2] is acute myeloid leukemia cell line MV4-11. In words: Growth of cancer cells, Cell Titer-Glo GI50, MV4-11. To be noted: read-out: GI50 MV4-11.
The test system of test [3] is HepG2 drug resistant strain HepG2 CDK9 KI C20-1. In words: Growth of drug resistant strain HepG2 KI C20-1, Cell Titer-Glo GI50. Format: cell-based, human. The settings on record: for GI50 HepG2 CDK9 KI C20-1: CDK9 resistant mutation knockin HepG2 monoclone, 72 hours, Cell Titer-Glo.
For test [4], the system named is human liver cancer cell line HepG2. In words: Growth of cancer cells, Cell Titer-Glo GI50, HepG2. To be noted: incubated for 72 hours. Format: cell-based.
Test [5] has as its system acute myeloid leukemia cell line MOLM13. In words: Growth of cancer cells, Cell Titer-Glo GI50, MOLM13. Format: cell-based. To be noted: incubated for 72 hours, Cell Titer-Glo.
Test [6] relates to MOLM13 drug resistant strain MOLM13 BR1. The test is described as follows: Growth of drug resistant strain MOLM13 BR1, Cell Titer-Glo GI50. Format: cell-based. To be noted: Homo sapiens, MOLM-13, BAY1251152-resistant MOLM13 strain, 72 hours.
The test system of test [7] is human colorectal cancer cell DLD1. The test is described as follows: Growth of cancer cells, Cell Titer-Glo GI50, DLD1. Format: cell-based.
Test [8] deals with human colorectal cancer cell HCT116. The test is described as follows: Growth of cancer cells, Cell Titer-Glo GI50, HCT116. Format: cell-based.
For test [9], the system named is human chronic myeloid leukemia cell K562. The test is described as follows: Growth of cancer cells, Cell Titer-Glo GI50, K562. The test is classed as cell-based. To be noted: incubated for 72 hours, Cell Titer-Glo, read-out: GI50 K562.
The target of test [10] is CDK9-L156F mut/CyclinT1 mutant protein (Homo sapiens (Human), UniProt P50750, L156F). The test is described as follows: Enzyme activity assay of CDK9 mutant protein inhibition in vitro, CDK9-L156F mut/CyclinT1.
The target in a further test is CDK9 (Homo sapiens (Human), UniProt P50750). In words: Binding activity of compound and CDK9, split luciferase system (C37-CL / CDK9-NL) in HEK-293T cells. The test is classed as cell-based. An excerpt: The plasmid of split luciferase system was constructed by molecular cloning technology. The N-terminal domain (NLuc) and C-terminal domain (CLuc) of luciferase were respectively cloned and inserted into the vector PCDNA3 to construct NLuc-PCDNA3 and CLuc-PCDNA3 vectors, and the polyclonal sites were reserved at both ends of the sequence. Then CDC37 and CDK9 were cloned into the corresponding vectors to construct C37-CL and CDK9-NL vectors. C37-CL plasmid sequence is shown in SEQ ID NO. 1. CDK9-NL plasmid sequence is shown in SEQ ID NO. 2.
The mixed transfection complex was added to the 10 cm cell culture dish and cultured at 37° C. and 5% CO2 for 24 hours. […] After counting, the transfected cells were placed in a 96-well white Corning cell culture plate (purchased from Corning, U.S.) with 100 μL, 5000 cells/well. After 12 hours, the medium was removed from the 96-well plate and 100 μL culture medium containing corresponding concentration of the testing compound was added, which was cultured continuously for 12 hours. After 12 hours, 20 μL Luciferase-Glo (purchased from Promega, U.S.) testing reagent was added to each well. After mixing, the […] value was detected using a microplate reader.

Test [11] deals with histiocytic lymphoma U-937. In words: Growth of cancer cells, Cell Titer-Glo GI50, U937. Format: cell-based. The settings on record: Homo sapiens, U-937; incubated for 72 hours, Cell Titer-Glo; read-out: GI50 U937.
In the next test the target is CDK9/CyclinT1 protein (Homo sapiens (Human), UniProt P50750). The test is described as follows: Enzyme activity assay of CDK9 protein inhibition in vitro, CDK9/CyclinT1.
The test system of test [12] is human ovarian granulosa tumor cell COV434. In words: Growth of cancer cells, Cell Titer-Glo GI50, COV434. The settings on record: read-out: GI50 COV434. The test is classed as cell-based.
Test [13] concerns acute myeloid leukemia cell line OCI-AML-3. In words: Growth of cancer cells, Cell Titer-Glo GI50, OCI-AML-3. Format: cell-based. The settings on record: Homo sapiens; incubated for 72 hours, Cell Titer-Glo; read-out: GI50 AML3.
Test [14] concerns cervical cancer cell HeLa. In words: cells. The settings on record: Homo sapiens, 72 h, read-out: GI50 HeLa.
Test [15] has as its system lymphoma cell WSU-DLCL2. In words: cells. To be noted: Homo sapiens, WSUDLCL2, 72 h, read-out: GI50 WSU-DLCL2.
In test [16] the test system is gastrointestinal stromal tumor GIST-T1. The test is described as follows: cells. The settings on record: Homo sapiens, GISTT1, 72 h, read-out: GI50 GIST-T1.
Test [17] relates to cervical cancer cell HeLa. To be noted: read-out: GI50 HeLa; incubated for 72 hours, Cell Titer-Glo.
Test [18] has as its system lymphoma cell WSU-DLCL2. The settings on record: read-out: GI50 WSU-DLCL2; incubated for 72 hours, Cell Titer-Glo.
Test [19] deals with gastrointestinal stromal tumor GIST-T1. The settings on record: read-out: GI50 GIST-T1; incubated for 72 hours, Cell Titer-Glo.
The mark [20] stands for this setting: Homo sapiens, MOLM-13, Table 2, read-out: GI50 MOLM13.
The mark [21] stands for this setting: Homo sapiens, DLD-1, incubated for 72 hours.
Setting [22] is: Homo sapiens, HCT-116, incubated for 72 hours.
Where [23] appears, read: Homo sapiens, MOLM-13, Table 1, read-out: GI50 MOLM 13.
Setting [24] is: incubated for 72 hours, Cell Titer-Glo.

Read-outs that look alike come from different tables or passages of the source.

Chain of CDK9 (P50750 whole entry, the tested form may be a part): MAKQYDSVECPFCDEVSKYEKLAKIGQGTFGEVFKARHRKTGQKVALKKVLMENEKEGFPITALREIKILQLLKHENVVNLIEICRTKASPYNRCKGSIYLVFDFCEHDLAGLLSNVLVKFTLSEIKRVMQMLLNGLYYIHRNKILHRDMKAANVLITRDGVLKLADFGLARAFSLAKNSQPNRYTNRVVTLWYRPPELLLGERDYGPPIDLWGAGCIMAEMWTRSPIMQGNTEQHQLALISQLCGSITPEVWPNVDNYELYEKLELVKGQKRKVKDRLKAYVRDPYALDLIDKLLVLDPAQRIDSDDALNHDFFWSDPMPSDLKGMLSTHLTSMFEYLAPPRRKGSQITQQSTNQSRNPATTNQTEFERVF
Chain of CDK9/CyclinT1 protein (P50750 whole entry): as the sequence (P50750 whole entry, the tested form may be a part) above
Chain of CDK9/CyclinT1 protein (O60563 whole entry partner): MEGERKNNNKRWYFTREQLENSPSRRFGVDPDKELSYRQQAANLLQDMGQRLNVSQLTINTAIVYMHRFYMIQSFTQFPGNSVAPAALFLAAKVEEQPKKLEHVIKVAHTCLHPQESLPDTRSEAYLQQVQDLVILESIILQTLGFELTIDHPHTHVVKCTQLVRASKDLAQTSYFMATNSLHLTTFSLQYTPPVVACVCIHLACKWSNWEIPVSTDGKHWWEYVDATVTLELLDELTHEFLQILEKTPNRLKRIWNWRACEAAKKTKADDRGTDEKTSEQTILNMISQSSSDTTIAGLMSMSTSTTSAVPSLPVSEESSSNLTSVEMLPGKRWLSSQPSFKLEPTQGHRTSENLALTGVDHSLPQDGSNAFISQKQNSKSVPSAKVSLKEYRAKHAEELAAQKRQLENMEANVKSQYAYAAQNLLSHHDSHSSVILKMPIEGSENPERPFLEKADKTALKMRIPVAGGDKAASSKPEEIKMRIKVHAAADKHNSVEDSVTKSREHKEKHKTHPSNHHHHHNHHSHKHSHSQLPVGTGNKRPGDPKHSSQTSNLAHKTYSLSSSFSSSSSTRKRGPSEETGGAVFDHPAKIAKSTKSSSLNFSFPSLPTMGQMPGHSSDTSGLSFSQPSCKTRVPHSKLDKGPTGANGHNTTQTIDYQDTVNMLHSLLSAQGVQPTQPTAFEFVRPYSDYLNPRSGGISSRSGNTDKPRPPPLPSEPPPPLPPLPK
Chain of CDK9-L156F mut/CyclinT1 mutant protein (P50750 whole entry L156F, the tested form may be a part): as the sequence (P50750 whole entry, the tested form may be a part) above, with L156F counted along it
Chain of CDK9-L156F mut/CyclinT1 mutant protein (O60563 whole entry partner, the tested form may be a part): as the sequence (O60563 whole entry partner) above

As for `COc1cc(F)ccc1-c1cc(Nc2cc(CS(C)(=N)=O)ccn2)ncc1F` (centres unmarked) [BAY1251152, reference compound], the GI50 – broadly, the concentration at which growth is held to half of that of the control – in test [1] (Homo sapiens, MOLM-14) is 40 nM; in test [2] (Homo sapiens, MV4-11, 72 h), 27 nM; in test [4] (Table 3), 36.1 nM; in test [5] (setting [20]), 38 nM; in [6] it was 1190 nM. The “GI50 HepG2 CDK9 KI C20-1” value in test [3] is listed as >1000 nM. For the same compound, the “drug resistance on the drug resistant strain of liver cancer cell HepG2” value in test [3] (result in words) is “obvious drug resistance”.

For the compound `COCCNC1CCC(Nc2nccc(-c3ccc4c(c3)C(C(C)C)(C(C)C)CNC4=O)n2)CC1` (centres unmarked) [Compound 14, 4,4-diisopropyl-6-(2-(((1r,4r)-4-((2-methoxyethyl)amino)cyclohexyl)amino)pyrimidin-4-yl)-3,4-dihydroisoquinolin-1(2H)-one], the 50% growth inhibitory concentration (GI50) in test [7] (setting [21]) is 63 nM; in test [2] (Homo sapiens, MV4-11, 72 h) it was 17 nM; in test [8] (setting [22]), 12 nM; in [4] (Table 1) it was 23 nM; in [5] (setting [20]) it was 7.08 nM; in [6], 8.26 nM. Further, the concentration for 50% growth inhibition (GI50) in [9] (Homo sapiens, K562) was determined as 26 nM.

In test [10], `COCCN[C@H]1CC[C@H](Nc2nccc(-c3ccc4c(c3)C(C(C)C)(C(C)C)CNC4=O)n2)CC1` [Compound 14, 4,4-diisopropyl-6-(2-(((1r,4r)-4-((2-methoxyethyl)amino)cyclohexyl)amino)pyrimidin-4-yl)-3,4-dihydroisoquinolin-1(2H)-one] came in with an IC50 of 98.6 nM.

With `CC1(C)CNC(=O)c2ccc(-c3ccnc(Nc4ccc(F)c(NS(C)(=O)=O)c4)n3)cc21` [Compound 34, N-(5-((4-(4,4-dimethyl-1-oxo-1,2,3,4-tetrahydroisoquinolin-6-yl)pyrimidin-2-yl)amino)-2-fluorophenyl)methanesulfamide], the IC50 turned out to be 50 nM on CDK9 and 6.1 nM on CDK9/CyclinT1 protein. Besides, the 50% growth inhibitory concentration (GI50) in test [2] (Homo sapiens, MV4-11, 72 h) turned out to be 4 nM; in [11], 7 nM; in [5] (setting [23]), 11 nM; in [9] (Homo sapiens, K562) it was 24 nM; in test [12] (Homo sapiens, COV434, 72 h) it was 9 nM; in [13] it was 8 nM.

With `CC1(C)CNC(=O)c2ccc(-c3ccnc(Nc4cccc(N5CCCNCC5)c4)n3)cc21` [Compound 35, 6-(2-((3-(1,4-homopiperazin-1-yl)phenyl)amino)pyrimidin-4-yl)-4,4-dimethyl-3,4-dihydroisoquinolin-1(2H)-one], on CDK9, the IC50 was 300 nM. For the same compound, the GI50 in test [2] (Homo sapiens, MV4-11, 72 h) was < 1 nM; in test [11] it was 23 nM; in test [4] (Table 3), 87.4 nM; in test [5] (setting [23]) it was < 1 nM; in test [6], 1.69 nM; in test [9] (Homo sapiens, K562), 25 nM. In addition, the concentration for 50% growth inhibition (GI50) was < 1 nM in test [12] (Homo sapiens, COV434, 72 h) and 33 nM in test [13]. In addition, in test [3], the “GI50 HepG2 CDK9 KI C20-1” value worked out at 138.5 nM.

With `CN1CCN(c2cccc(Nc3nccc(-c4ccc5c(c4)C(C)(C)CNC5=O)n3)c2)CC1` [Compound 37, 4,4-dimethyl-6-(2-((3-(4-methylpiperazin-1-yl)phenyl)amino)pyrimidin-4-yl)-3,4-dihydroisoquinolin-1(2H)-one], the IC50 on CDK9 amounted to 49 nM. Also, the GI50 in test [1] (Homo sapiens, MOLM-14) is < 1 nM; in test [2] (Homo sapiens, MV4-11, 72 h), < 1 nM; in [4] (Table 3), 27.8 nM; in [5] (setting [23]), < 1 nM; in test [6], 3.05 nM; in test [9] (Homo sapiens, K562), 31 nM. Moreover, in test [3], the “GI50 HepG2 CDK9 KI C20-1” value is on record as 74.8 nM.

Consider `CN1CCN(c2ccc(Nc3nccc(-c4ccc5c(c4)C(C)(C)CNC5=O)n3)cc2)CC1` [Compound 40, 4,4-dimethyl-6-(2-((4-(4-methylpiperazin-1-yl)phenyl)amino)pyrimidin-4-yl)-3,4-dihydroisoquinolin-1(2H)-one], for which the IC50 came to 67 nM on CDK9 and 6.6 nM on CDK9/CyclinT1 protein. For the same compound, the GI50 in test [1] (Homo sapiens, MOLM-14) was determined as 5.8 nM; in test [2] (Homo sapiens, MV4-11, 72 h) it was 1.7 nM; in test [11], 4.6 nM; in test [5] (setting [23]), 3 nM; in test [6], 4.39 nM; in [9] (Homo sapiens, K562), 25 nM. The GI50 in test [13] was found to be 5 nM.

As to `Cc1ccc(Nc2nccc(-c3ccc4c(c3)C(C)(C)CNC4=O)n2)cc1N1CCN(C)CC1` [Compound 82, 4,4-methyl-6-(2-((4-methyl-3-(4-methylpiperazin-1-yl)phenyl)amino)pyrimidin-4-yl)-dihydroisoquinolin-1(2H)-one], the GI50 is 0.8 nM in test [1] (Homo sapiens, MOLM-14); < 1 nM in [5] (setting [23]); 0.845 nM in test [5] (setting [20]); 1.71 nM in test [6]; 26 nM in test [9] (Homo sapiens, K562). In addition, the IC50 on CDK9/CyclinT1 protein worked out at 2.6 nM; in [10], 105 nM.

On to `CCc1cnn2c(NCc3ccc[n+]([O-])c3)cc(N3CCCC[C@H]3CCO)nc12` [Dinaciclib, reference compound], for which the GI50 stood at 30 nM in test [7] (setting [21]); 16.5 nM in test [14]; 18 nM in test [1] (Homo sapiens, MOLM-14); 22 nM in test [2] (Homo sapiens, MV4-11, 72 h); 15 nM in test [8] (setting [22]); 5 nM in test [11]. The 50% growth inhibitory concentration (GI50) in the test with lymphoma cell WSU-DLCL2 [15] was found to be 13 nM; in test [16], 15 nM; in test [5] (setting [23]), 11 nM; in [9] (Homo sapiens, K562) it was 53 nM; in test [12] (Homo sapiens, COV434, 72 h) it was 8 nM; in [13], 4 nM.

For `COC[C@@H](C)NC1CCC(Nc2cc(-c3csc(NCC4(C#N)CCOCC4)n3)c(Cl)cn2)CC1` (some centres unmarked) [JSH-009, reference compound], the GI50 in [7] (incubated for 72 hours) was found to be 106 nM; in [17], 18 nM; in test [1] it was 4 nM; in [2] (setting [24]) it was 6 nM; in [8] (incubated for 72 hours), 23 nM; in test [5] (Table 1, read-out: GI50 MOLM 13) it was 4 nM. Also, the 50% growth inhibitory concentration (GI50) was determined as 16 nM in the test with lymphoma cell WSU-DLCL2 [18], 9 nM in test [9], 34 nM in [19] and 30 nM in test [12] (setting [24]). Moreover, the IC50 on CDK9/CyclinT1 protein (read-out: CDK9/CyclinT1 Protein activity (IC50)) was 29 nM.
